This test deals with HFF. Description: Compound was evaluated for CPE inhibition using anti-HCMV assay in AD169 strain infected HFF cells. Type of test: functional, cell-based. As to conditions: Homo sapiens.

The structures appear in SMILES notation. pEC50, pIC50: −log10 of the molar value.

In the case of `Nc1nc(O)c2ccn(C3C=CC(CO)C3)c2n1` (configuration not stated), the pEC50 (commonly −log10 of the EC50, conventionally taken in molar units) is 3.46 and the negative logarithm of the IC50 (pIC50) (usually −log10 of the IC50, conventionally taken in molar units) is < 3.39.
